Assays:
[1] = tested on: MEXF276L; test: Cytotoxicity against MEXF276L cells after 4 days by monolayer assay; format: functional, cell-based; details: Homo sapiens, 96 h
[2] = tested on: MEXF989; test: Cytotoxicity against MEXF989 cells after 2 to 7 days by clonogenic assay; format: functional, cell-based; details: Homo sapiens, MEXF 989
[3] = Cytotoxicity against MAXF583 cells after 2 to 7 days by clonogenic assay; format: functional, cell-based; details: Homo sapiens
[4] = tested on: CCRF-CEM; test: Cytotoxicity against CCRF-CEM cells after 2 to 7 days by clonogenic assay; format: functional, cell-based; details: Homo sapiens
[5] = Cytotoxicity against MEXF520L cells after 4 days by monolayer assay; format: functional, cell-based; details: Homo sapiens, MEXF 520L, 96 h
[6] = Cytotoxicity against MAXF1162 cells after 2 to 7 days by clonogenic assay; format: functional, cell-based; details: Homo sapiens
[7] = Cytotoxicity against human umbilical cord hematopoietic stem cells after 12 days by clonogenic assay; format: cell-based; details: 288 h
[8] = tested on: RXF 393; test: Cytotoxicity against RXF393NL cells after 4 days by monolayer assay; format: functional, cell-based; details: Homo sapiens, RXF 393NL, 96 h
[9] = Cytotoxicity against BXF1218L cells after 4 days by monolayer assay; format: functional, cell-based; details: Homo sapiens, BXF 1218L, 96 h
[10] = tested on: PAXF736; test: Cytotoxicity against PAXF736 cells after 2 to 7 days by clonogenic assay; format: functional, cell-based; details: Homo sapiens
[11] = tested on: MCF7; test: Cytotoxicity against MCF7 cells after 4 days by monolayer assay; format: functional, cell-based; details: Homo sapiens, MCF7, 96 h
[12] = Cytotoxicity against LXF-1121L cells after 4 days by monolayer assay; format: functional, cell-based; details: Homo sapiens, 96 h
[13] = Cytotoxicity against MEXF535 cells after 2 to 7 days by clonogenic assay; format: functional, cell-based; details: Homo sapiens
[14] = tested on: RXF 393; test: Cytotoxicity against RXF393 cells after 2 to 7 days by clonogenic assay; format: functional, cell-based; details: Homo sapiens
[15] = Cytotoxicity against CXF158 cells after 2 to 7 days by clonogenic assay; format: functional, cell-based; details: Homo sapiens
[16] = Cytotoxicity against MEXF394NL cells after 4 days by monolayer assay; format: functional, cell-based; details: Homo sapiens, MEXF 394NL, 96 h
[17] = Cytotoxicity against CXF1103 cells after 2 to 7 days by clonogenic assay; format: functional, cell-based; details: Homo sapiens
[18] = Cytotoxicity against RXF944LX cells after 2 to 7 days by clonogenic assay; format: functional, cell-based; details: Homo sapiens, RXF 944LX
[19] = tested on: MDA-MB-231; test: Cytotoxicity against MDA-MB-231 cells after 4 days by monolayer assay; format: functional, cell-based; details: Homo sapiens, MDA-MB-231, 96 h
[20] = Cytotoxicity against MAXF401 cells after 4 days by monolayer assay; format: functional, cell-based; details: Homo sapiens, MAXF401, 96 h
[21] = tested on: MDA-MB-468; test: Cytotoxicity against MDA-MB-468 cells after 4 days by monolayer assay; format: functional, cell-based; details: Homo sapiens, MDA-MB-468, 96 h
[22] = Cytotoxicity against CXF264 cells after 2 to 7 days by clonogenic assay; format: functional, cell-based; details: Homo sapiens
[23] = Cytotoxicity against RXF468L cells after 4 days by monolayer assay; format: functional, cell-based; details: Homo sapiens, 96 h
[24] = Cytotoxicity against MEXF514L cells after 4 days by monolayer assay; format: functional, cell-based; details: Homo sapiens, MEXF 514L, 96 h
[25] = Cytotoxicity against RXF944L cells after 4 days by monolayer assay; format: functional, cell-based; details: Homo sapiens, RXF 944L, 96 h
[26] = Cytotoxicity against PRXF22Rv1 cells after 4 days by monolayer assay; format: functional, cell-based; details: Homo sapiens, 96 h
[27] = tested on: PAXF546; test: Cytotoxicity against PAXF546 cells after 2 to 7 days by clonogenic assay; format: functional, cell-based; details: Homo sapiens
[28] = Cytotoxicity against MEXF462NL cells after 4 days by monolayer assay; format: functional, cell-based; details: Homo sapiens, MEXF 462NL, 96 h

SMILES: C[C@@H]1CC(=O)[C@@H](O)[C@]2(O1)O[C@@H]1CC(=O)O[C@@H]1C1=C2C(=O)c2c(O)cccc2C1=O
- IC50 [1]: 87 nM
- IC50 [2]: 295 nM
- IC50 [3]: 195 nM
- IC50 [4]: 132 nM
- IC50 [5]: 87 nM
- IC50 [6]: 455 nM
- IC50 [7]: 1190 nM
- IC50 [8]: 95 nM
- IC50 [9]: 140 nM
- IC50 [10]: 614 nM
- IC50 [11]: 150 nM
- IC50 [12]: 207 nM
- IC50 [13]: 137 nM
- IC50 [14]: 375 nM
- IC50 [15]: 257 nM
- IC50 [16]: 87 nM
- IC50 [17]: 257 nM
- IC50 [18]: 290 nM
- IC50 [19]: 150 nM
- IC50 [20]: 150 nM
- IC50 [21]: 150 nM
- IC50 [22]: 257 nM
- IC50 [23]: 95 nM
- IC50 [24]: 87 nM
- IC50 [25]: 95 nM
- IC50 [26]: 177 nM
- IC50 [27]: 420 nM
- IC50 [28]: 87 nM

Source: ChEMBL document CHEMBL1148819, “Structure, derivatization, and antitumor activity of new griseusins from Nocardiopsis sp” (J Med Chem, 2007)
